Reference: EPA's ToxValDB 9.5 (doi:10.2903/j.efsa.2007.110r)
Converted amounts (≈) assume the structure as drawn.

Columns and labels:
Oncorhynchus mykiss = settings: acute; duration: 96 hours; mortality
Canidae = settings: subchronic; duration: 90 days; oral; Dog Other; organ weight
Pimephales promelas = settings: chronic/long-term; duration: 28 days; growth
Daphnia magna = settings: chronic/long-term; duration: 21 days; reproduction
Apis mellifera = settings: acute; duration: 48 hours; oral; unspecified; mortality
Colinus virginianus = settings: acute; oral; diet; mortality

N#Cc1c[nH]cc1-c1cccc2c1OC(F)(F)O2 [Fludioxonil]
LC50 (Oncorhynchus mykiss): 0.23 µg/mL (≈ 0.927 µM)
LC50 (Tagia sp.; acute, mortality): > 1000 mg/kg
NOEC (Tagia sp.; chronic/long-term): 20 mg/kg
LD50 (Rattus norvegicus; acute, oral, mortality): > 5000 mg/kg
NOAEL (Rattus norvegicus; chronic, duration: 2 years, oral, diet, organ weight): 37 mg/kg-day
NOAEL (Rattus norvegicus; reproduction developmental, reproduction): 212 mg/kg-day
NOAEL (Canidae): 58.5 mg/kg-day
NOEC (Pimephales promelas): 0.039 mg/L
LD50 (Bird; acute, oral, unspecified, mortality): ≥ 2000 mg/kg
NOEC (Bird; reproductive): 11.1 mg/kg-day
NOEC (Daphnia magna): 0.005 mg/L
LD50 (Apis mellifera): > 100 µg/piece
LC50 (Colinus virginianus): > 833 mg/kg-day
